One data set concerns female balb/c mice. The settings on record: 80 mg/kg intraperitoneal, 10 consecutive days. Here is the method:
In the meantime, subacute toxicity experiments were conducted to evaluate the safety of some of the compounds in the present disclosure in mouse.

In data set [1] the test system is K562 human chronic myeloid leukemia cells. Kind of data set: Anti-proliferation on leukemia cells, K562. Format: cell-based. Here is the method:
Anti-proliferation experiments were conducted with leukemia cells with some of the compounds in the present disclosure. Table 3 listed the results of evaluation of the anti-proliferation activities for some of the compounds from this present disclosure conducted with acute leukemia cells, wherein MV4-11 is human acute leukemia monocyte, Molm-13 is human acute myeloid leukemia cells, and K562 is human chronic myeloid leukemia cells.

Data set [2] relates to MV4-11 human acute leukemia monocyte. Kind of data set: Anti-proliferation on leukemia cells, MV4-11. Format: cell-based. The settings on record: MV-411 cells. The procedure:
(§1) Anti-proliferation experiments were conducted with leukemia cells with some of the compounds in the present disclosure.

Data set [3] concerns Molm-13 human acute myeloid leukemia cells. Kind of data set: Anti-proliferation on leukemia cells, Molm-13. Format: cell-based. Conditions: Molm-13 cells. The procedure: as §1
Data set [4] has as its target MLL1-WDR5 protein-protein interactions (Homo sapiens, UniProt P61964). Kind of data set: Inhibition of MLL1-WDR5 protein-protein interaction. Format: binding. Conditions: Table 1; read-out: MLL1-WDR5 PPI inhibition activity.
Data set [5] relates to Hox and Meis-1 gene expression. The experiment in a line: RT-PCR at cellular level, Hox and Meis-1 gene expression. Type of data set: cell-based. Conditions: Yes/No.
For data set [6], the system named is H3K4 acetylation level (MLL1 catalytic activity in cells). The experiment in a line: Western-blot at cellular level, H3K4 acetylation (H3K4me1/2/3) levels. Format: cell-based. Conditions: Yes/No. The procedure:
In addition, Western-blot experiments at cellular level were conducted with some of the compounds in the present disclosure, with results listed in Table 1 on whether some of the compounds in the present disclosure inhibited H3K4 acetylation levels.
The inhibition on MLL1 catalytic activities at the cellular level for some of the compounds was plotted in FIG. 2.

What is called GI50 is the concentration at which growth is held to half of that of the control.

Consider `Cc1c(F)c(N)cc(C(=O)Nc2cc(-n3cc(C(=O)NC4CCN(C)CC4)nn3)ccc2N2CCN(C)CC2)c1Cl` [Example 6, 1-(3-(5-Amino-2-chloro-4-fluoro-3-methylbenzoylamino)-4-(4-methylpiperazin-1-group)phenyl)-N-(1-methylpiperidin-4-group)-1H-1,2,3-triazole-4-carboxamide], for which the “Average body weight changes” value with female balb/c mice is on record as “slight body weight increase”. For the same molecule, the concentration for 50% growth inhibition (GI50) in data set [1] turned out to be 10.4 ± 0.7 µM.

With `Cc1c(F)c(N)cc(C(=O)Nc2cc(-n3cc(C(=O)NCCCN4CCOCC4)nn3)ccc2N2CCN(C)CC2)c1Cl` [Example 7], the “Average body weight changes” value in the data set with female balb/c mice is listed as “slight body weight increase”. Besides, the GI50 in data set [1] was 12.9 ± 0.4 µM.

For `Cc1c(F)c(N)cc(C(=O)Nc2cc(-c3ccc(NC(=O)CCCN)cc3)ccc2N2CCN(C)CC2)c1Cl` [DDO-2117, reference compound], the “Average body weight changes” value in the data set on female balb/c mice was “apparent body weight decrease”.

Consider `Cc1c(F)c(N)cc(C(=O)Nc2c(N3CCN(C)CC3)ccc(-n3cc(C(=O)NCCN4CCOCC4)nn3)c2C)c1Cl` [Example 22, 1-(3-(5-amino-2-chloro-4-fluoro-3-Methylbenzoylamino)-2-methyl-4-(4-methylpiperazin-1-group)phenyl)-N-(2-Morpholineethyl)-1H-1,2,3-triazol-4-formamide], for which the “Average body weight changes” value in the data set with female balb/c mice is listed as “slight body weight increase”. Further, the GI50 was 9.5 ± 0.4 µM in data set [2] (Homo sapiens, MV4-11); 11.2 ± 0.8 µM in data set [3] (Homo sapiens); 10.9 ± 0.7 µM in data set [1]. Besides, the IC50 in data set [4] was less than 0.01 µM.

Regarding “5-amino-2-chloro-N-(5-(4-(4-(dimethylaminomethyl)benzyl)-1H-1,2,3-triazol-1-group)-2-(4-methylpiperazin-1-group group)phenyl)-4-fluoro-3-Methyl benzoyl [Example 18]”, in data set [5], the “Downregulation of Hox and Meis-1 expression” value (from here on “Downregulation”) is “Yes”. In addition, the GI50 in data set [2] worked out at 11.2 ± 1.3 µM; in data set [3], 15.4 ± 2.2 µM. The “Inhibition on H3K4 acetylation level” value in data set [6] is given as “Yes”. For the same molecule, in data set [4], the IC50 is less than 0.05 µM.

For `Cc1c(F)c(N)cc(C(=O)Nc2cc(-n3cc(NC(=O)CCCN)nn3)ccc2N2CCN(C)CC2)c1Cl` [Example 16, 5-amino-N-(5-(4-(4-Aminobutyrylamino)-1H-1,2,3-triazol-1-group)-2-(4-methylpiperazin-1-group)phenyl)-2-chloro-4-fluoro-3-methyl benzoylamino], the “Average body weight changes” value in the data set on female balb/c mice is “slight body weight increase”. Moreover, the 50% growth inhibitory concentration (GI50) was 15.1 ± 0.9 µM in data set [2] (Homo sapiens, MV4-11) and 15 ± 0.8 µM in data set [1]. In addition, in data set [4], the IC50 was less than 0.01 µM.

Regarding `COC(=O)c1cn(-c2ccc(N3CCN(C)CC3)c(NC(=O)c3cc(N)c(F)c(C)c3Cl)c2)nn1` [Example 1, 1-(3-(5-amino-2-chloro-4-fluoro-3-methylbenzoylamino)-4-(4-methylpiperazine-1-group)phenyl)-1H-1,2,3-methyl triazole-4-carboxylate], the “Downregulation” value in data set [5] is on record as “Yes”. Besides, the “Inhibition on H3K4 acetylation level” value in data set [6] is recorded as “Yes”.

As to `Cc1c(F)c(N)cc(C(=O)Nc2cc(-n3cc(C(=O)N4CCOCC4)nn3)ccc2N2CCN(C)CC2)c1Cl` [Example 4], the “Downregulation” value in data set [5] is on record as “Yes”. Further, the “Average body weight changes” value in the data set on female balb/c mice is on record as “slight body weight increase”. In data set [6], the “Inhibition on H3K4 acetylation level” value is “Yes”. In addition, halving of growth in data set [1] (GI50) required 34.4 ± 0.9 µM.

Consider `Cc1c(F)c(N)cc(C(=O)Nc2cc(-c3ccc(NC(=O)C(N)C(C)C)cc3)ccc2N2CCN(C)CC2)c1Cl` (stereo not shown) [DDO-2113, reference compound], for which, in the data set with female balb/c mice, the Mouse survival entry is reported as “all mice died after dosing for 5 days”.

As for `Cc1c(F)c(N)cc(C(=O)Nc2cc(-c3ccc(N)cc3)ccc2N2CCN(C)CC2)c1Cl` [DDO-2084, reference compound], the “Downregulation” value in data set [5] is given as “Yes”. Further, the GI50 in data set [2] (Homo sapiens, MV4-11) was found to be 17.7 ± 2.3 µM; in data set [1], 50.5 ± 5.5 µM. Further, the “Inhibition on H3K4 acetylation level” value in data set [6] was “Yes”. Moreover, the IC50 in data set [4] is 0.0887 ± 0.0049 µM.
